Entries after “also recorded” stand apart in the source; their conditions may differ. Like-named read-outs stand apart in the source and are kept apart here.
What was measured:
native TRPV1 [1] = target: T1, native TRPV1 (Rattus norvegicus, UniProt O35433); assay: Whole-cell currents in cultured embryonic DRG neurons (patch clamp); assay type: cell-based; conditions: for reversibility of induced current: RTX 10 and 100 nM, washout >15 min; for activation phase of whole-cell current: −60 mV
T1 construct: RTX-induced membrane currents on native TRPV1 in embryonic DRG neurons grown in culture; endogenous in cells; host or cells: primary rat E18 DRG neurons
Experimental: Electrophysiology. Whole-cell and single-channel currents were recorded from rat DRG neurons in culture and from Xenopus laevis oocytes injected with rat TRPV1 cRNA. Animals were cared for according to the standards of the National Institutes of Health (NIH). All animal use protocols were approved by Southern Illinois University School of Medicine Animal Care Committee.
Primary DRG neuronal cultures were prepared from embryonic day 18 (E18) rat embryos. Adult pregnant rats were killed with an overdose of isoflurane. DRG were dissected and the cells were dissociated by triturating with a fire-polished glass pipette. Cells were cultured in Neurobasal medium (Life Technologies, Buffalo, N.Y., USA), supplemented with 10% fetal bovine serum (FBS), and grown on poly-D-lysine-coated glass coverslips. Cells were used from 5 to 15 days after plating. Small diameter (<30 μm) rounded neurons were selected for patch-clamp experiments. […] The Giga-seal patch-clamp technique was used to record whole-cell currents. For perforated-patch recordings, the bath solution contained (mM): sodium gluconate 140, KCl 2.5, Hepes 10, MgCl2 1 and ethylene glycol bis(2-aminoethyl ether)-N,N,N′N′-tetraacetic acid (EGTA) 1.5 (pH adjusted to 7.35 with NaOH), and the pipette solution contained (mM): sodium gluconate 130, NaCl 10, KCl 2.5, Hepes 10, MgCl2 1, EGTA 1.5 and 240 μg/ml^−1 amphotericin B (pH adjusted to 7.35 with NaOH). For current-clamp experiments the pipette solution contained (mM): potassium gluconate 130, NaCl 10, MgCl2 1, EGTA 0.2, K2ATP 1 and Hepes 10; pH adjusted to 7.35 with NaOH. Extracellular solution for current- and voltage-clamp experiments contained (mM): NaCl 140, KCl 4, MgCl2 1 and Hepes 10; pH adjusted to 7.35 with NaOH. Currents were recorded using a WPC 100 patch-clamp amplifier (E.S.F. Electronic, Goettingan, Germany). Data were filtered at 10 kHz, digitized (VR-10B, Instrutech Corp., Great Neck, N.Y., USA) and stored on videotapes or directly stored in the computer using a LabView interface. For analysis of whole-cell currents, data were filtered at 1 kHz (−3 db frequency with an 8-pole low-pass Bessel filter, Warner Instruments, LPF-8) and digitized at 2 kHz.
This example tests the activation of whole-cell current in DRG neurons by RTX. We determined the properties of RTX-induced membrane currents on native TRPV1 in embryonic DRG neurons grown in culture. […] Protons were not used to elicit currents because of the presence of acid-sensitive ion channels in these neurons.

native TRPV1 [2] = target: T1, native TRPV1; conditions: capsaicin 1 μM, cell-attached, Premkumar et al. 2002, cited from earlier work
TRPV1 [3] = assay type: in vivo
Excerpt: Low concentrations of RTX (0.19 micrograms/kg) were introduced intrathecally.
FIG. 14 provides photographs of TRPV1 levels in paw skin with and without intrathecal RTX administration.

[4] = tested on: TRPV1-containing central terminals; assay: Paw withdrawal latency and nocifensive behavior after intrathecal RTX administration; assay type: in vivo
Excerpt: FIG. 14 provides photographs of TRPV1 levels in paw skin with and without intrathecal RTX administration. […] However, because PWL is a test for acute pain sensation, it is inappropriate for studying TRPV1 involvement, because TRPV1 mediates inflammatory pain.

vanilloid receptors [5] = target: T2, vanilloid receptors (Rattus norvegicus, UniProt O35433); conditions: Acs et al. 1995; cited from earlier work
vanilloid receptors [6] = target: T2, vanilloid receptors; conditions: Acs et al. 1995; read-out: Kd, ability to induce Ca2+ uptake; cited from earlier work
TRPV1 [7] = target: TRPV1 (Rattus norvegicus, UniProt O35433); conditions: Caterina et al. 1997, cited from earlier work
[8] = RTX 0.19 micrograms/kg intrathecal

T1 sequence (O35433 whole entry): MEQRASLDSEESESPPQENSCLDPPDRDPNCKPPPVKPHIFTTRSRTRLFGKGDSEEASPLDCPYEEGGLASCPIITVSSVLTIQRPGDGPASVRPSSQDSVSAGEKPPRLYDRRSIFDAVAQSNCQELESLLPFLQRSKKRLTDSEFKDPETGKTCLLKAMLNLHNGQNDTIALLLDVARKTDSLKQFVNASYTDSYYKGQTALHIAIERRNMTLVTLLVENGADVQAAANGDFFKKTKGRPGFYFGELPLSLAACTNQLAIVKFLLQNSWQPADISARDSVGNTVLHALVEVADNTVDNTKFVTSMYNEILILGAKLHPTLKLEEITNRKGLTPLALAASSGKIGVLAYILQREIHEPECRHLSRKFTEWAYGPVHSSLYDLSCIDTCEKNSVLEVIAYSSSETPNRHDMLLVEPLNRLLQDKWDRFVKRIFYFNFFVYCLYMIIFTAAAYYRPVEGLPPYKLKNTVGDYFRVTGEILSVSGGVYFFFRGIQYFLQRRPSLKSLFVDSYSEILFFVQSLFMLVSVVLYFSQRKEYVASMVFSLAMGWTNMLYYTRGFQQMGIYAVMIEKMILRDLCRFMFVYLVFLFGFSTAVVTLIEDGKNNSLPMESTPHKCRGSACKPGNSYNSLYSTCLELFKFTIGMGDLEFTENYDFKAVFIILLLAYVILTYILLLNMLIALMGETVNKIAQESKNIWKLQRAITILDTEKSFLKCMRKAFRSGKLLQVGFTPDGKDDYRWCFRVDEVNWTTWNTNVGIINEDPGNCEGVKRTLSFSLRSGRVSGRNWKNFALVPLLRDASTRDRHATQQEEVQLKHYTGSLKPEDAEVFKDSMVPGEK
Sequence of TRPV1 (Rattus norvegicus, UniProt O35433) (O35433 whole entry): as above
T2 sequence (O35433 whole entry): as above

Row | SMILES | reversibility of induced current (native TRPV1 [1]; capsaicin 1 μM) | activation phase of whole-cell current (native TRPV1 [1]; capsaicin 1 μM) | neurons responding to capsaicin (native TRPV1 [1]; small diameter cultured DRG neurons) | maximal Po (native TRPV1 [2]; +60 mV) | maximal Po (native TRPV1 [2]; −60 mV) | activation phase of whole-cell current (native TRPV1 [1]; RTX 10 nM) | activation phase of whole-cell current (native TRPV1 [1]; RTX 100 nM) | TRPV1 levels in DRG (TRPV1 [3]; [8]) | TRPV1 levels in spinal cord dorsal horn (DH) (TRPV1 [3]; [8]) | effect on cell body or peripheral terminals (paw skin TRPV1) (TRPV1 [3]; RTX intrathecal) | nocifensive behavior to intraplantar injection of capsaicin [4] | paw withdrawal latency (PWL) to radiant heat [4] | duration of guarding ([4]; intraplantar capsaicin) | number of guarding ([4]; intraplantar capsaicin) | fold more potent for binding as compared to Ca2+ uptake (vanilloid receptors [5]) | Ca2+ uptake potency (half-maximal concentration) (vanilloid receptors [6]) | fold more potent than capsaicin to activate TRPV1 current (TRPV1 [7]) | EC50 (TRPV1 [7]; read-out: EC50 to activate TRPV1 current)
1 | COc1cc(CNC(=O)CCCC/C=C/C(C)C)ccc1O [capsaicin] | readily reversible | 7.14 ± 0.42 s | More than 70% | 0.4±0.08 | 0.8±0.04 | – | – | – | – | – | – | – | – | – | – | – | – | –
2 | C=C(C)[C@]12C[C@@H](C)[C@@]34O[C@](Cc5ccccc5)(O[C@@H]1[C@@H]3C=C(COC(=O)Cc1ccc(O)c(OC)c1)C[C@]1(O)C(=O)C(C)=C[C@@H]41)O2 [RTX, resiniferatoxin] | could not be reversed readily | – | – | – | – | 69 ± 10.9 s | 29.35 ± 2.65 s | maintenance; also recorded: remained constant | reduction; also recorded: significantly reduced | without affecting the cell body or peripheral terminals | dramatic decrease; also recorded: significantly reduced | no change; also recorded: not affected | decreased significantly | decreased significantly | 25 fold | 1 nM | 20 fold | 39 nM

Source: patent US20090209633A1, “Treatment of Pain With Resiniferatoxin and Related Analogs” (priority 2006, published 2009)
